Test results: patent publication US20120172386A1, “Combinations Comprising a VEGF Receptor Inhibitor” (NOVARTIS AG, priority 2005, published 2012)

What was measured:
[1] = Percutaneous penetration/permeation in static Franz-type diffusion cells with split-thickness human cadaver skin; assay type: in vitro ADME; conditions: solution b (1% in propylene glycol/oleyl alcohol 9:1); for Skin concentration: 48 hours, stratum corneum removed
Method: Frozen human dorsal cadaver skin (Caucasian; back skin) was obtained from the National Disease Research Interchange, Philadelphia, USA. Skin from three different donors was used;
Thawed skin samples were dermatomed to 0.7 mm with an Aesculap dermatome to obtain “split-thickness” skin.
Percutaneous penetration was studied in vitro by means of static Franz-type diffusion cells with phosphate buffered saline/fetal calf serum 2:1 as receptor fluid at 32° in triplicates for 48 hours. The compounds were applied as 1% solutions (300 μl each) in propylene glycol (solution a) or in propylene glycol/oleyl alcohol 9:1 (solution b). Samples of 100 μl were taken 5 to 7 times and replaced by fresh receptor fluid as described previously (Schmook, et al., Skin Pharmacol. 1993, 6:116-124).
Drug analysis was performed with specimens of the exposed skin (at the end of the 48 hours experiment), from which the stratum corneum had been removed by 20 strippings with an adhesive tape. The weighed skin samples were homogenized in 0.2 M ammonium phosphate buffer (pH 7.0). The homogenates were extracted with ethyl acetate and processed as described (Schmook, et al 1993).

VEGF-R2 (KDR) = VEGF-R2 (KDR) (Homo sapiens, UniProt P35968); assay: Inhibition of the tyrosine kinase activity of VEGF-R2 (KDR); assay type: biochemical
Method: Inhibition of the Tyrosine Kinase Activity of VEGF-R2 (KDR)
The inhibition test is carried out as described above.

Chain of VEGF-R2 (KDR) (P35968 20-1356, species assumed): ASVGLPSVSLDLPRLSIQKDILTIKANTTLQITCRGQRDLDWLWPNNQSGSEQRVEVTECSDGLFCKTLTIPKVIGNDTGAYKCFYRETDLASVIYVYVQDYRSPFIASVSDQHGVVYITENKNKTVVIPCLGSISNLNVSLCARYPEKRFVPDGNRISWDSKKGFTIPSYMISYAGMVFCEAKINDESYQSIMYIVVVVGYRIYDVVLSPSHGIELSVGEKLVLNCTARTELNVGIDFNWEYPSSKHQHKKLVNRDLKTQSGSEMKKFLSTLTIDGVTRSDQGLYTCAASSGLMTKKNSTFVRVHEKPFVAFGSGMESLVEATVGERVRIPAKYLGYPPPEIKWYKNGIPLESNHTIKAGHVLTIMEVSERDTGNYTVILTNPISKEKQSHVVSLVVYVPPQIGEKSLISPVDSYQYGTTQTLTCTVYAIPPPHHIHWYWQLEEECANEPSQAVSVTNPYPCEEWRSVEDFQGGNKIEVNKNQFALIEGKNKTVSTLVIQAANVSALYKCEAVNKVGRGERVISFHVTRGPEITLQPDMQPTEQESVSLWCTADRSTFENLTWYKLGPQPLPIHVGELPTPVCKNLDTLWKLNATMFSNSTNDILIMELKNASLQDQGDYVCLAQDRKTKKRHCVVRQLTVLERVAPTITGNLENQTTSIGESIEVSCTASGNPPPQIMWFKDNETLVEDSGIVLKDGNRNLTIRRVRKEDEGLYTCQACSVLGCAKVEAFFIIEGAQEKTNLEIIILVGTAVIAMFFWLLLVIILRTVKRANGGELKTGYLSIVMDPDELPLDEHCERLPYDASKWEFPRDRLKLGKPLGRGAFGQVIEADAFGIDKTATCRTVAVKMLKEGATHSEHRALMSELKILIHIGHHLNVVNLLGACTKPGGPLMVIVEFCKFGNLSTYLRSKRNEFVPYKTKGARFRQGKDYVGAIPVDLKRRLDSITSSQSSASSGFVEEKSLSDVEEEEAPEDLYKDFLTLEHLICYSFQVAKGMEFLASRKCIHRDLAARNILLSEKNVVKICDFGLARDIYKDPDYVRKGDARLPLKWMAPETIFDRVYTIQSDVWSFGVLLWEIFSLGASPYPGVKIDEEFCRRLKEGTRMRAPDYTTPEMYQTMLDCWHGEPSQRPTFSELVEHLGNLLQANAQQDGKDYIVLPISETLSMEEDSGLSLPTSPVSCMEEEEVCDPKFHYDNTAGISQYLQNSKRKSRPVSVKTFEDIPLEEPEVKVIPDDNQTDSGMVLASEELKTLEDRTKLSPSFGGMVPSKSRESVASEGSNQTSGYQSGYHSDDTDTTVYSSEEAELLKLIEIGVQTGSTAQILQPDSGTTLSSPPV

For `Nc1cc(Oc2ccc3c(C(=O)Nc4ccc(F)c(C(F)(F)F)c4)cccc3c2)ncn1`, the melting point was 224 to 225 °C.
Compound `Nc1nccc(Oc2ccc3c(C(=O)Nc4ccc(F)c(C(F)(F)F)c4)cccc3c2)n1` has a Permeation rate ([1]; batch of skin 3) of 19 ± 3 ng/mL/h and a Skin concentration ([1]; batch of skin 3) of 46 ± 13 µg/g.
Work on `CCN1CCN(Cc2ccc(-c3cc4c(N[C@H](C)c5ccccc5)ncnc4[nH]3)cc2)CC1` yielded a Permeation rate ([1]; batch of skin 1) of 182 ± 68 ng/mL/h, a Skin concentration ([1]; batch of skin 1) of 35 ± 12 µg/g and a Permeation rate ([1]; batch of skin 2) of 189 ± 43 ng/mL/h. It also gave a Skin concentration ([1]; batch of skin 2) of 72 ± 24 µg/g.
`Clc1ccc(Nc2nnc(Cc3ccncc3)c3ccccc23)cc1` showed a Permeation rate ([1]; batch of skin 1) of 286 ± 90 ng/mL/h and a Skin concentration ([1]; batch of skin 1) of 10.4 ± 2.0 µg/g.
In the case of `Nc1nccc(Oc2ccc3c(c2)OCCN3C(=O)Nc2ccc(C(F)(F)F)c(C(F)(F)F)c2)n1` [12a)], the IC50 (VEGF-R2 (KDR)) is reported as 0.052 µM.
With `Nc1nccc(Oc2ccc3c(c2)OCCN3C(=O)Nc2ccc(Cl)c(C(F)(F)F)c2)n1` [12b)] the IC50 (VEGF-R2 (KDR)) was 0.01 µM.
`Nc1nccc(Oc2ccc3c(c2)OCCN3C(=O)Nc2ccc(F)c(C(F)(F)F)c2)n1` [12d)] gave an IC50 (VEGF-R2 (KDR)) of 0.073 µM.
In the case of `Nc1nc(Cl)cc(Oc2ccc3c(C(=O)Nc4cccc(C(F)(F)F)c4)cccc3c2)n1` [Example 13, 6-(2-Amino-6-chloro-pyrimidin-4-yloxy)-naphthalene-1-carboxylic acid (3-trifluoromethyl-phenyl)-amide], the melting point is reported as 234 to 236 °C.
Compound `COC(=O)Nc1nccc(Oc2ccc3c(C(=O)Nc4cccc(C(F)(F)F)c4)cccc3c2)n1` [Example 19, 6-(2-Methoxycarbonylamino-pyrimidin-4-yloxy)-naphthalene-1-carboxylic acid (3-trifluoromethyl-phenyl)-amide] has a melting point of 199 to 200 °C.
`Nc1cc(Oc2ccc3c(C(=O)Nc4cccc(C(F)(F)F)c4)cccc3c2)ncn1` [Example 26, 6-(6-Amino-pyrimidin-4-yloxy)-naphthalene-1-carboxylic acid (3-trifluoromethyl-phenyl)-amide] gave a melting point of 243 to 244 °C.
Compound `CNc1cc(Oc2ccc3c(C(=O)Nc4ccc(N5CCOCC5)c(C(F)(F)F)c4)cccc3c2)ncn1` [Example 40, 6-(6-Methylamino-pyrimidin-4-yloxy)-naphthalene-1-carboxylic acid (4-morpholin-4-yl-3-trifluoromethyl-phenyl)-amide] has a melting point of 156 to 157 °C.
In the case of `N#Cc1cc(Oc2ccc3c(C(=O)Nc4cccc(C(F)(F)F)c4)cccc3c2)ncn1` [Example 43, 6-(6-Cyano-pyrimidin-4-yloxy)-naphthalene-1-carboxylic acid (3-trifluoromethyl-phenyl)-amide], the melting point is reported as 167 °C.
With `CC(C)NC(=O)c1cc(Oc2ccc3c(C(=O)Nc4cccc(C(F)(F)F)c4)cccc3c2)ncn1` [Example 51, 6-[5-(3-Trifluoromethyl-phenylcarbamoyl)-naphthalen-2-yloxy]-pyrimidine-4-carboxylic acid isopropylamide] the melting point was 205 to 208 °C.
With `O=C(Nc1cccc(C(F)(F)F)c1)c1cccc2cc(Oc3cc(CCl)ncn3)ccc12` [Example 53, 6-(6-Chloromethyl-pyrimidin-4-yloxy)-naphthalene-1-carboxylic acid (3-trifluoromethyl-phenyl)-amide] the melting point was 178 to 181 °C.
With `CNCc1cc(Oc2ccc3c(C(=O)Nc4cccc(C(F)(F)F)c4)cccc3c2)ncn1` [Example 54, 6-(6-Methylaminomethyl-pyrimidin-4-yloxy)-naphthalene-1-carboxylic acid (3-trifluoromethyl-phenyl)-amide] the melting point was 141 to 143 °C.
In the case of `CN(C)Cc1cc(Oc2ccc3c(C(=O)Nc4cccc(C(F)(F)F)c4)cccc3c2)ncn1` [Example 55, 6-(6-Dimethylaminomethyl-pyrimidin-4-yloxy)-naphthalene-1-carboxylic acid (3-trifluoromethyl-phenyl)-amide], the melting point is reported as 180 to 181 °C.
`Nc1cc(Sc2ccc3c(C(=O)Nc4ccc(F)c(C(F)(F)F)c4)cccc3c2)ncn1` [Example 57, 6-(6-Amino-pyrimidin-4-ylsulfanyl)-naphthalene-1-carboxylic acid (4-fluoro-3-trifluoromethyl-phenyl)-amide] showed a melting point of 221 °C.
With `Nc1cc(Sc2ccc3c(C(=O)Nc4cccc(C(F)(F)F)c4)cccc3c2)ncn1` [Example 58, 6-(6-Amino-pyrimidin-4-ylsulfanyl)-naphthalene-1-carboxylic acid (3-trifluoromethyl-phenyl)-amide] the melting point was 205 °C.
In the case of `Nc1cc(Sc2ccc3c(C(=O)Nc4cccc(OC(F)(F)F)c4)cccc3c2)ncn1` [Example 61, 6-(6-Amino-pyrimidin-4-ylsulfanyl)-naphthalene-1-carboxylic acid (3-trifluoromethoxy-phenyl)-amide], the melting point is reported as 197 to 199 °C.
`CCCCOC(=O)c1cc(Oc2ccc3c(C(=O)Nc4cccc(C(F)(F)F)c4)cccc3c2)ccn1` [Example 64, 4-[5-(3-Trifluoromethyl-phenylcarbamoyl)-naphthalen-2-yloxy]-pyridine-2-carboxylic acid butyl ester] showed a melting point of 128 to 130 °C.
Work on `CNC(=O)c1cc(Oc2ccc3c(C(=O)Nc4cccc(C(F)(F)F)c4)cccc3c2)ccn1` [Example 65, 4-[5-(3-Trifluoromethyl-phenylcarbamoyl)-naphthalen-2-yloxy]-pyridine-2-carboxylic acid methylamide] yielded a melting point of 175 to 177 °C.
In the case of `NC(=O)c1cc(Oc2ccc3c(C(=O)Nc4cccc(C(F)(F)F)c4)cccc3c2)ccn1` [Example 66, 4-[5-(3-Trifluoromethyl-phenylcarbamoyl)-naphthalen-2-yloxy]-pyridine-2-carboxylic acid amide], the melting point is reported as 117 to 120 °C.
In the case of `CN(C)CCNC(=O)c1cc(Oc2ccc3c(C(=O)Nc4cccc(C(F)(F)F)c4)cccc3c2)ccn1` [Example 67, 4-[5-(3-Trifluoromethyl-phenylcarbamoyl)-naphthalen-2-yloxy]-pyridine-2-carboxylic acid (2-dimethylamino-ethyl)-amide], the melting point is reported as 80 to 82 °C.
Work on `Nc1cc(Oc2ccc3c(C(=O)Nc4cccc(C(F)(F)F)c4)cccc3c2)ccn1` [Example 68, 6-(2-Amino-pyridin-4-yloxy)-naphthalene-1-carboxylic acid (3-trifluoromethyl-phenyl)-amide] yielded a melting point of 222 to 224 °C.
In the case of `COC(=O)Nc1cc(Oc2ccc3c(C(=O)Nc4cccc(C(F)(F)F)c4)cccc3c2)ccn1` [Example 69, {4-[5-(3-Trifluoromethyl-phenylcarbamoyl)-naphthalen-2-yloxy]-pyridin-2-yl}-carbamic acid methyl ester], the melting point is reported as 230 to 232 °C.
Compound `Nc1nccc(CCc2ccc3c(C(=O)Nc4cccc(C(F)(F)F)c4)cccc3c2)n1` [Example 70, 6-[2-(2-Amino-pyrimidin-4-yl)-ethyl]-naphthalene-1-carboxylic acid (3-trifluoromethyl-phenyl)-amide] has a melting point of 225 to 227 °C.
`Nc1cc(C#Cc2ccc3c(C(=O)Nc4cccc(C(F)(F)F)c4)cccc3c2)ncn1` [Example 71, 6-(6-Amino-pyrimidin-4-ylethynyl)-naphthalene-1-carboxylic acid (3-trifluoromethyl-phenyl)-amide] gave a melting point of 217 to 220 °C.
With `CC(C)c1ccc(-n2nc(C(C)(C)C)cc2NC(=O)c2cncc3cc(Oc4cc(N)ncn4)ccc23)cc1` [Example 93, 7-(6-Amino-pyrimidin-4-yloxy)-isoquinoline-4-carboxylic acid [5-tert-butyl-2-(4-isopropyl-phenyl)-2H-pyrazol-3-yl]-amide] the melting point was 131 to 133 °C.
`CC(C)(C)c1cc(NC(=O)c2cncc3cc(Oc4cc(N)ncn4)ccc23)n(-c2ccc(F)cc2)n1` [Example 94, 7-(6-Amino-pyrimidin-4-yloxy)-isoquinoline-4-carboxylic acid [5-tert-butyl-2-(4-fluoro-phenyl)-2H-pyrazol-3-yl]-amide] gave a melting point of 124 to 126 °C.
In the case of `CNc1cc(Oc2ccc3c(C(=O)Nc4ccc(F)c(C(F)(F)F)c4)cncc3c2)ncn1` [Example 95, 7-(6-Methylamino-pyrimidin-4-yloxy)-isoquinoline-4-carboxylic acid (4-fluoro-3-trifluoromethyl-phenyl)-amide], the melting point is reported as 255 to 257 °C.
Work on `CNc1cc(Oc2ccc3c(C(=O)Nc4cccc(C(F)(F)F)c4)cncc3c2)ncn1` [Example 96, 7-(6-Methylamino-pyrimidin-4-yloxy)-isoquinoline-4-carboxylic acid (3-trifluoromethyl-phenyl)-amide] yielded a melting point of 205 to 208 °C.
For `Nc1nccc(Oc2ccc3c(C(=O)Nc4cccc(C(F)(F)F)c4)cccc3c2)n1` [drawing 76], the Permeation rate ([1]; batch of skin 2) was 13 ± 3 ng/mL/h, the Skin concentration ([1]; batch of skin 2) was 44 ± 17 µg/g and the Permeation rate ([1]; batch of skin 3) was 8 ± 2 ng/mL/h. For the same compound, the Skin concentration ([1]; batch of skin 3) was 24 ± 6 µg/g.
`Nc1cc(Oc2ccc3c(C(=O)Nc4cccc(C(F)(F)F)c4)cccc3c2)ncn1` [drawing 77] gave a Permeation rate ([1]; batch of skin 3) of 12 ± 4 ng/mL/h and a Skin concentration ([1]; batch of skin 3) of 34 ± 3 µg/g.
With `Nc1cc(Oc2ccc3c(C(=O)Nc4ccc(F)c(C(F)(F)F)c4)cccc3c2)ncn1` [drawing 78] the Permeation rate ([1]; batch of skin 3) was 22 ± 3 ng/mL/h and the Skin concentration ([1]; batch of skin 3) was 19 ± 7 µg/g.
